{
  "source": "paper PMC8174488",
  "about": "“4-Arylthiosemicarbazide derivatives as a new class of tyrosinase inhibitors and anti-Toxoplasma gondii agents” (Journal of Enzyme Inhibition and Medicinal Chemistry, 2021)",
  "key": {"L929 cells": {"test_system": "L929 cells", "test": "Cell viability assay (MTT, ISO 10993-5) on L929 mouse fibroblasts", "format": "cell-based", "conditions": "24 h, concentration for 30% inhibition of cell proliferation", "text": "First, we evaluated the cytotoxic effects of 1b–9b, which is necessary prior to measuring anti-Toxoplasma and Tyr inhibition in order to exclude cytotoxic compounds. […] Cytotoxicity was estimated using mouse fibroblast (L929) cells line via MTT assay, according to the international standards ISO 10993–5:2009(E). […] Therefore, the obtained results were expressed as CC30, which was defined as the highest concentration of the compound that causes 30% damage of cells and was considered according to ISO as non-toxic.\nThe L929 mouse fibroblast (ATTC® CCL-1™, Manassas, VA) was routinely maintained in RPMI 1640 media (R8758, Sigma-Aldrich, Suffolk, UK), supplemented with 10% foetal bovine serum (Foetal Bovine Serum, ATCC® 30–2020™), 100 I.U./mL penicillin and 100 µg/mL streptomycin (Penicillin-Streptomycin Solution ATCC® 30–2300™). Cells were trypsinised (Trypsin-EDTA Solution, 1X ATCC® 30–2101™) twice a week and seeded at a density of 1 × 10^6 per T25 cell culture flask and incubated at 37 °C and 10% CO2 to achieve a confluent monolayer.\nCell viability assay was performed according to international standards (ISO 10993–5:2009(E)), using tetrazolium salt (MTT, Sigma-Aldrich) and mouse fibroblasts L929 cells. Culture medium RPMI 1640, without phenol red (Biowest, Nuaille, France) supplemented with 10% FBS, 2 mM L-glutamine (Sigma-Aldrich), 100 I.U./mL penicillin, 100 µg/mL streptomycin were used. Briefly, 1 × 10^4/well of L929 cells were placed in 96-well plates and incubated for 24 h at 37 °C and 10% CO2. Afterwards, the old culture medium was replaced with 100 µL of the compound, drug or inhibitor, diluted in culture medium, and the cells treated for 24 h. Additionally, cells were treated with 0.03–4.0% concentration of DMSO as the solvent (data not shown). Then, 50 µL of 1 mg/mL of MTT solution in RPMI 1640 without phenol red was added to each well and incubated for 2 h at 37 °C and 10% CO2. Next, cell culture medium was aspirated carefully and 150 µL of DMSO was added to each well, and the plates were gently mixed. Then, 25 µL 0.1 M glycine buffer (pH 10.5) (Sigma-Aldrich) was added. The optical density at 570 nm using a multi-mode microplate reader SpectraMax® i3 (Syngen, Taipei City, Taiwan) was recorded. The results were expressed as a percentage of viability compared to untreated cells. All experiments were performed in triplicate. Cytotoxicity assay using human fibroblast Hs27 cells was also performed as described above (included in Supplementary Material)."}, "T. gondii RH strain": {"test_system": "T. gondii RH strain", "test": "Antiparasitic assay: T. gondii RH proliferation in Hs27 cells, [3H]uracil incorporation", "format": "cell-based, Toxoplasma gondii"}, "Toxoplasma gondii": {"test_system": "Toxoplasma gondii", "conditions": "Toxoplasma gondii proliferation; cited from earlier work"}},
  "data": [
    {"smiles": "COc1cc(Cc2cnc(N)nc2N)cc(OC)c1OC", "note": "[Trimethoprim (TRI), Trimethoprim, reference compound]", "values": [
      {"measurement": "CC30", "setting": "L929 cells", "value": 61.25, "unit": "µM"},
      {"measurement": "IC50", "setting": "T. gondii RH strain; Toxoplasma gondii, HS27", "value": 50.9, "unit": "µM"},
      {"measurement": "SR (selectivity ratio)", "setting": "T. gondii RH strain; ratio of CC30 (L929) to IC50Tg", "value": 1.20},
      {"measurement": "IC50", "setting": "Toxoplasma gondii", "value": 50.9, "unit": "µM"}
    ]}
  ]
}
